Our source for the TGI and GI50 values is PubChem BioAssay (NCI).

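Protocol summary: plate cells (96-well), add compound at 5 concentrations, incubate 48 h, interpolate endpoints linearly. GI50: concentration for 50% inhibition of growth. The concentration for full growth arrest is given as TGI.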

Some test systems named below: IGROV1 ovarian; HOP-92 NSCLC; SK-OV-3 ovarian; SNB-19 CNS; SF-295 CNS; UO-31 renal; MCF7 breast; NCI-H226 lung; T-47D breast; HS 578T breast.
What all share (assay): NCI anticancer screen, dose series, 48 h

Take `COc1cc(NCc2ccc3oc(=O)c(-c4ccccc4)nc3c2)cc(OC)c1OC`: the TGI in the experiment with IGROV1 ovarian, in the experiment on HOP-92 NSCLC, in the experiment with SK-OV-3 ovarian, with SNB-19 CNS, in the experiment with SF-295 CNS and in the experiment on UO-31 renal was more than 10 µM in each case. For the same compound, the TGI in the experiment with MCF7 breast, with NCI-H226 lung, in the experiment on T-47D breast and in the experiment with HS 578T breast was more than 10 µM each time.
Consider `CN(C(=O)c1ccc(C(F)(F)F)cc1)c1ccc(Oc2ccc3c(c2)cc(C(=O)N2CCN(Cc4ccc(OC(F)F)cc4)CC2)n3C)nc1`, for which the GI50 with IGROV1 ovarian is more than 100 µM; in the experiment with HOP-92 NSCLC it was 3.02 µM; with SK-OV-3 ovarian, more than 100 µM; with SNB-19 CNS, 34.9 µM; in the experiment on SF-295 CNS, less than 0.01 µM; in the experiment on UO-31 renal it was 4.22 µM. Further, the GI50 is 0.515 µM with MCF7 breast, 1.44 µM with NCI-H226 lung, 0.253 µM with T-47D breast and more than 91.5 µM in the experiment with HS 578T breast. Moreover, the TGI in the experiment with IGROV1 ovarian was more than 100 µM; in the experiment on HOP-92 NSCLC, more than 88.2 µM; with SK-OV-3 ovarian, more than 100 µM; in the experiment with SNB-19 CNS it was more than 100 µM; with SF-295 CNS, more than 100 µM; in the experiment with UO-31 renal it was more than 100 µM. Besides, the TGI in the experiment with MCF7 breast was 43.4 µM; with NCI-H226 lung, more than 100 µM; in the experiment on T-47D breast, more than 58.2 µM; in the experiment on HS 578T breast it was more than 100 µM.
As for `CCN(CC)c1ccc(-c2cc(-c3cc(OC)c(OC)c(OC)c3)nc(N3CCOCC3)c2C#N)cc1`, the GI50 with IGROV1 ovarian is 2.83 µM; with HOP-92 NSCLC, 0.796 µM; in the experiment with SK-OV-3 ovarian, 3.22 µM; with SNB-19 CNS, 12.8 µM; in the experiment on SF-295 CNS it was 0.809 µM; with UO-31 renal it was 2.99 µM. Besides, the GI50 in the experiment with MCF7 breast is 2.03 µM; in the experiment on NCI-H226 lung, 2.34 µM; with T-47D breast it was 1.29 µM; with HS 578T breast, 0.507 µM. The TGI is more than 100 µM with IGROV1 ovarian; 4.42 µM in the experiment on HOP-92 NSCLC; more than 100 µM in the experiment on SK-OV-3 ovarian; more than 100 µM in the experiment on SNB-19 CNS; 3.98 µM with SF-295 CNS; more than 100 µM in the experiment with UO-31 renal. The TGI is 17.7 µM in the experiment with MCF7 breast, 42.2 µM in the experiment with NCI-H226 lung, more than 100 µM in the experiment on T-47D breast and 12.2 µM in the experiment with HS 578T breast.
With `COc1ccc(-c2nnc(COc3ccc(C(=O)/C=C/c4ccco4)cc3)o2)cc1`, the GI50 with IGROV1 ovarian was 2.08 µM; in the experiment on HOP-92 NSCLC, 2.9 µM; in the experiment on SK-OV-3 ovarian it was 12.2 µM; in the experiment with SNB-19 CNS, 5.56 µM; in the experiment on SF-295 CNS, 3.75 µM; in the experiment on UO-31 renal it was 2.32 µM. Also, the GI50 in the experiment with MCF7 breast was 1.39 µM; in the experiment with NCI-H226 lung, 4 µM; with T-47D breast, 2.91 µM; in the experiment with HS 578T breast it was 7.43 µM. In addition, the TGI was 4.38 µM with IGROV1 ovarian; 16.9 µM in the experiment on HOP-92 NSCLC; 24.6 µM in the experiment on SK-OV-3 ovarian; 18.2 µM in the experiment on SNB-19 CNS; 14.7 µM in the experiment on SF-295 CNS; 6.69 µM in the experiment on UO-31 renal. Moreover, the TGI with MCF7 breast was 3.28 µM; in the experiment with NCI-H226 lung, 16.8 µM; in the experiment on T-47D breast, 10.8 µM; with HS 578T breast, 43.1 µM.
Turning to `Fc1cc2[nH]ncc2c2c3c(c(-c4cn[nH]c4)nc12)CCCC3`, the GI50 with IGROV1 ovarian was 0.521 µM; with HOP-92 NSCLC it was 1.48 µM; in the experiment with SK-OV-3 ovarian, 0.287 µM; in the experiment with SNB-19 CNS it was 1.65 µM; in the experiment on SF-295 CNS, 1.44 µM; in the experiment on UO-31 renal, 0.896 µM. Besides, the GI50 in the experiment with MCF7 breast was 1.45 µM; in the experiment on NCI-H226 lung, 1.28 µM; with T-47D breast it was 1.26 µM; in the experiment with HS 578T breast it was 0.624 µM. In addition, the TGI in the experiment on IGROV1 ovarian was determined as 9.56 µM; in the experiment with HOP-92 NSCLC, 5.66 µM; in the experiment with SK-OV-3 ovarian, 1.24 µM; with SNB-19 CNS, 17.1 µM; in the experiment with SF-295 CNS it was 6.44 µM; with UO-31 renal, 3.87 µM. Moreover, the TGI was 12.8 µM in the experiment with MCF7 breast, 5.85 µM in the experiment with NCI-H226 lung, more than 21.5 µM in the experiment on T-47D breast and 3.46 µM in the experiment on HS 578T breast.
Regarding `COC(=O)C1=C(C)NC(C)=C(C(=O)OCCCN2CCC(c3ccccc3)(c3ccccc3)CC2)C1c1cccc([N+](=O)[O-])c1` (centres undefined), the TGI in the experiment on IGROV1 ovarian is 3.21 µM; in the experiment with HOP-92 NSCLC, 4.26 µM; in the experiment on SK-OV-3 ovarian it was 12.9 µM; in the experiment with SNB-19 CNS it was 3.24 µM; in the experiment on SF-295 CNS, 3.18 µM; in the experiment on UO-31 renal it was 3.89 µM. Moreover, the TGI with MCF7 breast came to 3.74 µM; in the experiment with NCI-H226 lung, 18.2 µM; in the experiment with T-47D breast, 30.2 µM; in the experiment with HS 578T breast, 4.57 µM.
Turning to `C=C1NC(=O)C(C(C)CC)NC(=O)C2CSCC(NC(=O)CCC(=O)O)C(=O)NC(Cc3ccccc3)C(=O)NC(C)C(=O)NC(CC(C)CC)C(=O)NC(C(=O)NC(Cc3ccccc3)C(=O)N3CCCC3C(=O)N2)C(C)OC(=O)C(CO)NC(=O)C(C(O)COC)N(C)C(=O)C(C(C)C)NC(=O)C(CC(C)CC)NC1=O` (centres undefined), the GI50 is 0.112 µM with IGROV1 ovarian; 0.0668 µM in the experiment on HOP-92 NSCLC; 0.0243 µM with SK-OV-3 ovarian; 0.0255 µM in the experiment with SNB-19 CNS; 0.00594 µM with SF-295 CNS; 0.567 µM in the experiment with UO-31 renal. The GI50 in the experiment with MCF7 breast was 0.0124 µM; in the experiment with NCI-H226 lung it was 0.117 µM; in the experiment on T-47D breast, 0.0242 µM; with HS 578T breast, 0.0115 µM. Also, the TGI in the experiment with IGROV1 ovarian was more than 6 µM; in the experiment with HOP-92 NSCLC, more than 4.93 µM; in the experiment on SK-OV-3 ovarian, more than 6 µM; with SNB-19 CNS, more than 6 µM; with SF-295 CNS, more than 6 µM; in the experiment with UO-31 renal it was more than 6 µM. Also, the TGI in the experiment on MCF7 breast, in the experiment with NCI-H226 lung, in the experiment on T-47D breast and in the experiment with HS 578T breast was more than 6 µM in each case.
Take `COc1cc2c3c(n(C)c(=O)c2cc1OC)-c1cc2c(cc1/C3=C\CCN)OCO2`: the GI50 was 0.882 µM in the experiment on IGROV1 ovarian; 1.32 µM in the experiment with HOP-92 NSCLC; 3.88 µM in the experiment on SK-OV-3 ovarian; 0.394 µM with SNB-19 CNS; less than 0.0239 µM in the experiment with SF-295 CNS; 0.337 µM with UO-31 renal. Further, the GI50 was 0.094 µM in the experiment with MCF7 breast, 0.517 µM with NCI-H226 lung, 1.08 µM in the experiment with T-47D breast and 2.01 µM in the experiment with HS 578T breast. Also, the TGI in the experiment on IGROV1 ovarian is more than 53.6 µM; in the experiment on HOP-92 NSCLC it was 26.5 µM; in the experiment on SK-OV-3 ovarian, more than 62.8 µM; with SNB-19 CNS, 16.3 µM; in the experiment on SF-295 CNS, 8.84 µM; with UO-31 renal, 8.9 µM. In addition, the TGI in the experiment with MCF7 breast is 1.3 µM; in the experiment on NCI-H226 lung, 2.42 µM; with T-47D breast, more than 100 µM.
